US20170087125A1, “FLAVONOID COMPOSITIONS FOR THE TREATMENT OF CANCER” (Augusta University Research Institute, Inc., priority 2015, published 2017)
Like-named read-outs stand apart in the source and are kept apart here.

Assay: Pharmacokinetics in rat plasma after oral and intravenous administration
Format: in vivo, Sprague Dawley rats
Conditions: for half-life / AUC / Cmax / Tmax: male, Sprague-Dawley, rat, plasma, 100 mg/kg; for half-life: read-out: t1/2 half-life (converted); for Cmax / Tmax: oral; for Bioavailabilty: rat plasma, ProFine 100 mg/kg (n = 3), oral vs IV
Experimental: Blood samples were collected at 9 time points, i.e., 0 min, 15 min, 30 min, 60 min, 2 h, 4 h, 8 h, 12 h and 24 h. Plasma levels of Luteolin, Quercetin and Kaempferol were analyzed using HPLC. […]

half-life [min] | AUC (iv, read-out: AUC0.24 (IV)) [ng·h/mL] | Cmax [ng/mL] | Tmax [h] | AUC (po, read-out: AUC0.24 (Oral)) [ng·h/mL] | Bioavailabilty [%] | Compound
136 | 90100 | 127 | 1 | 1170 | 1.30 | O=c1cc(-c2ccc(O)c(O)c2)oc2cc(O)cc(O)c12 [Ingredient 1, 3′,4′,5,7-tetrahydroxyflavone]
147 | 93800 | 165 | 4 | 2710 | 2.89 | O=c1c(O)c(-c2ccc(O)cc2)oc2cc(O)cc(O)c12 [Ingredient 3, 3,5,7-trihydroxy-2-(4-hydroxyphenyl)-4H-1-benzopyran-4-one]

Compound | half-life [min] | AUC (iv, read-out: AUC0.24 (IV)) [ng·h/mL] | Cmax [ng/mL] | Tmax [h] | AUC (po, read-out: AUC0.24 (Oral)) [ng·h/mL] | Bioavailabilty [%]
O=c1c(O)c(-c2ccc(O)c(O)c2)oc2cc(O)cc(O)c12 [Ingredient 2, 3,3′,4′5,7-Penthydroxyflavone] | 103 | 27200 | 51.9 | 1 | 248 | 0.91
